Tested on: LS180 cells
Test: CombiGEM CRISPR/Cas9 double-knockout screen (gene A biomarker + PKMYT1), barcode LFC and GI score, LS180
Format: cell-based, human
Excerpt: A combinatorial genetic en masse (CombiGEM™) screen is used to validate synthetic lethal pairs identified by the computational methods described in Example 1. Methods of performing CombiGEM™ are known in the art and described in U.S. Pat. No. 9,315,806; Bari, et al. (2017) Scientific Reports 7:6993; Wong, et al (2016) PNAS 113:2544-2549, each of which are incorporated by reference in their entirety. This example provides an overview of the pooled screening method to validate predicted synthetic lethal pairs of gene A biomarkers and gene B targets.
Briefly, oligonucleotide synthesis is used to generate a library of barcoded gRNA target sequences directed to gene A biomarkers (“gene A gRNA library”) and a library of barcoded gRNA target sequences directed to gene B targets (“gene B gRNA library”). […]
The barcoded sgRNA lentiviral libraries are evaluated in Cas9-expressing cancer cell lines (e.g., HT29 and/or LS180 cell lines). […] Genomic DNA is harvested and used for quantification of the integrated barcodes using a combination of barcode amplification by PCR and sequencing by NGS. […] The barcode reads are normalized per million reads for each sample. To measure cell proliferation, barcode count ratios of normalized barcode reads were calculated as fold changes. […]

Question: Which results are given for IGF1?
Answer: GI (gene interaction score = observed minus expected (gene A LFC + gene B LFC) double-knockout LFC, gene B = PKMYT1, LS180 cells): −1.07; LFC (gene A * B) (log2 fold-change of barcode counts, double knockout of gene A biomarker and PKMYT1, Cas9-expressing LS180 cells): −1.68
